Data: PubChem BioAssay (NCI)
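GI50 marks 50% less growth. TGI: total growth inhibition.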

Legend:
Assay in all cases: NCI-60 cell line screen, 384-well format
[1] = system: K-562 leukemia
[2] = system: HCT-116 colon
[3] = system: BT-549 breast
[4] = system: HT29 colon
[5] = system: NCI-H322M lung
[6] = system: NCI/ADR-RES ovarian
[7] = system: MDA-MB-468 breast
[8] = system: KM12 colon
[9] = system: HS 578T breast
[10] = system: OVCAR-3 ovarian
[11] = system: OVCAR-4 ovarian
[12] = system: CAKI-1 renal
[13] = system: SF-539 CNS
[14] = system: MOLT-4 leukemia
[15] = system: PC-3 prostate
[16] = system: MDA-MB-231 breast
[17] = system: NCI-H460 NSCLC
[18] = system: OVCAR-5 ovarian
[19] = system: T-47D breast
[20] = system: IGROV1 ovarian
[21] = system: M14 melanoma
[22] = system: SR leukemia
[23] = system: SNB-75 CNS
[24] = system: TK-10 renal
[25] = system: HL-60(TB) leukemia
[26] = system: SK-MEL-2 melanoma
[27] = system: NCI-H522 lung
[28] = system: MDA-MB-435 melanoma
[29] = system: CCRF-CEM leukemia
[30] = system: OVCAR-8 ovarian
[31] = system: LOX IMVI melanoma
[32] = system: A549 NSCLC
[33] = system: SNB-19 CNS
[34] = system: SN12C renal
[35] = system: MALME-3M melanoma
[36] = system: SF-268 CNS
[37] = system: A498 renal
[38] = system: HOP-92 NSCLC
[39] = system: SF-295 CNS
[40] = system: SK-OV-3 ovarian
[41] = system: NCI-H23 lung
[42] = system: MCF7 breast
[43] = system: NCI-H226 lung
[44] = system: UACC-257 melanoma
[45] = system: HOP-62 NSCLC
[46] = system: SK-MEL-28 melanoma
[47] = system: COLO 205 colon
[48] = system: HCT-15 colon
[49] = system: HCC-2998 colon
[50] = system: 786-0 renal
[51] = system: UO-31 renal
[52] = system: EKVX NSCLC
[53] = system: U251 glioblastoma
[54] = system: SK-MEL-5 melanoma
[55] = system: RPMI-8226 leukemia
[56] = system: DU-145 prostate
[57] = system: ACHN renal
[58] = system: UACC-62 melanoma
[59] = system: SW-620 colon

## CO[C@H]1C[C@@H]2CC[C@@H](C)[C@@](O)(O2)C(=O)C(=O)N2CCCC[C@H]2C(=O)O[C@H]([C@H](C)C[C@@H]2CC[C@@H](OCCO)[C@H](OC)C2)CC(=O)[C@H](C)C=C(C)[C@@H](O)[C@@H](OC)C(=O)[C@H](C)C[C@H](C)/C=C/C=C/C=C1C
[1]
  GI50: 2.04 µM
  TGI: 15.3 µM
[2]
  GI50: 8.33 µM
  TGI: 21.9 µM
[3]
  TGI: 15.6 µM
[4]
  GI50: 11.5 µM
  TGI: 23.7 µM
[5]
  GI50: 6.97 µM
  TGI: 22.1 µM
[6]
  GI50: 13.5 µM
  TGI: 28.7 µM
[7]
  GI50: < 0.01 µM
  TGI: 8.91 µM
[8]
  GI50: 11.2 µM
  TGI: 23.3 µM
[9]
  TGI: 7.24 µM
[10]
  GI50: 4.68 µM
  TGI: 21.8 µM
[11]
  GI50: 10.8 µM
  TGI: 24.1 µM
[12]
  GI50: 5.67 µM
  TGI: 21.4 µM
[13]
  GI50: 3.06 µM
  TGI: 19.7 µM
[14]
  GI50: < 0.01 µM
  TGI: 2.24 µM
[15]
  GI50: 0.549 µM
  TGI: 17.7 µM
[16]
  GI50: 12.5 µM
  TGI: 25.1 µM
[17]
  GI50: 0.377 µM
  TGI: 18.7 µM
[18]
  GI50: 15.2 µM
  TGI: 29.1 µM
[19]
  TGI: 16.2 µM
[20]
  GI50: < 0.01 µM
  TGI: 11.2 µM
[21]
  GI50: 12.1 µM
  TGI: 24.5 µM
[22]
  GI50: < 0.01 µM
  TGI: 1.3 µM
[23]
  GI50: 0.124 µM
  TGI: 4.55 µM
[24]
  GI50: 13.6 µM
  TGI: 31 µM
[25]
  GI50: 2.16 µM
  TGI: 6.09 µM
[26]
  GI50: 14.2 µM
  TGI: 27.2 µM
[27]
  GI50: 9.37 µM
  TGI: 22 µM
[28]
  GI50: 16.2 µM
  TGI: 29.9 µM
[29]
  GI50: < 0.01 µM
  TGI: 2.84 µM
[30]
  GI50: 10.9 µM
  TGI: 22.8 µM
[31]
  GI50: 6.02 µM
  TGI: 20.9 µM
[32]
  TGI: 20 µM
[33]
  GI50: 12.8 µM
  TGI: 25.5 µM
[34]
  GI50: 11.7 µM
  TGI: 24.2 µM
[35]
  GI50: < 0.01 µM
  TGI: 14.6 µM
[36]
  GI50: 12.6 µM
  TGI: 25.3 µM
[37]
  GI50: < 0.0276 µM
  TGI: 17.4 µM
[38]
  GI50: 11.2 µM
  TGI: 23.4 µM
[39]
  TGI: 16 µM
[40]
  GI50: 12.1 µM
  TGI: 25.4 µM
[41]
  GI50: 11.6 µM
  TGI: 23.9 µM
[42]
  GI50: < 0.0154 µM
  TGI: 12.9 µM
[43]
  GI50: 9.49 µM
  TGI: 21.8 µM
[44]
  GI50: 16.5 µM
  TGI: 30.1 µM
[45]
  GI50: 0.548 µM
  TGI: 20.7 µM
[46]
  GI50: 11.9 µM
  TGI: 16.5 µM
[47]
  GI50: 14.6 µM
  TGI: 27.7 µM
[48]
  GI50: 1.43 µM
  TGI: 18.7 µM
[49]
  GI50: 7.55 µM
  TGI: 22.9 µM
[50]
  GI50: 0.777 µM
  TGI: 21.1 µM
[51]
  GI50: < 0.01 µM
[52]
  GI50: 1.79 µM
  TGI: 20.4 µM
[53]
  GI50: 5.77 µM
  TGI: 21.1 µM
[54]
  GI50: 0.414 µM
  TGI: 3.78 µM
[55]
  GI50: < 0.01 µM
  TGI: 1.87 µM
[56]
  GI50: 7.21 µM
  TGI: 23.4 µM
[57]
  GI50: 2.93 µM
  TGI: 22.2 µM
[58]
  GI50: 6.61 µM
  TGI: 14.9 µM
[59]
  GI50: 11.8 µM
  TGI: 16.4 µM
